According to patent US7407982B2, “Oligo or polyalkylene glycol-coupled thrombin inhibitors” (HaemoSys GmbH, priority 2001, dated 2008):
pKi: −log10 of the molar value. Where two headings read alike, the source gives them in different places.

Experiments:
human α-thrombin = molecular target: T1, human α-thrombin (Homo sapiens, UniProt P00734); assay: Determination of Ki for thrombin inhibition (chromogenic or fluorogenic substrate, Dixon); assay type: biochemical; settings: for KiTrypsin/KiThrombin: Example 8, selectivity quotient
T1 construct: 50 μl human α-thrombin (Kordia); purchased Kordia
Description: The Ki values are the average values of at least three calculations.
For determining the thrombin inhibiting effect of all reversibly binding inhibitors and inhibitor conjugates with inhibiting constants smaller than 1 nM, a fluorescence spectrometer (LS50B from the company Perkin Elmer) was used. […] The Ki values are the average values of at least three calculations.

trypsin = molecular target: T2, trypsin (Bos taurus, UniProt P00760); assay: Ki values for trypsin, determined analogously; assay type: biochemical
T2 sequence (P00760 24-246): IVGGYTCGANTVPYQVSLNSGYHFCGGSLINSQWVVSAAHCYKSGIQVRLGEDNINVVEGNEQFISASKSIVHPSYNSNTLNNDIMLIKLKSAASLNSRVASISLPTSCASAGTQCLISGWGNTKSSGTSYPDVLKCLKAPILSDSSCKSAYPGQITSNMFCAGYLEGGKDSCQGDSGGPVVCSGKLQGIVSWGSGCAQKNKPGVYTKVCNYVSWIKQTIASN
Description: The Ki values for trypsin were determined analogously.
For optimizing the inhibitor conjugates, in particular of the following Examples 1 and 2, suitable groups R1 were sought which allow as strong a thrombin inhibition as possible. For examining the selectivity of the compounds, the inhibiting constants for trypsin were determined as well. The higher the quotient [KiTrypsin/KiThrombin], the more selectively the compound functions as a thrombin inhibitor. In order to facilitate the synthesis, this optimization was first carried out without coupling a polyalkylene glycol group to inhibitor molecules of formula (II) as listed in Table I. These compounds, which are active as thrombin inhibitors themselves, can be used as synthetic intermediates for the inhibitor conjugates of formula (I). As a central component, a glycyl-prolyl-dipeptide was consistently incorporated into the inhibitors.

plasmin = plasmin (Homo sapiens, UniProt P00747); assay: Inhibiting constants with respect to plasmin; assay type: biochemical; settings: Example 8a table
Chain of plasmin (P00747 581-810 limits assumed, species assumed): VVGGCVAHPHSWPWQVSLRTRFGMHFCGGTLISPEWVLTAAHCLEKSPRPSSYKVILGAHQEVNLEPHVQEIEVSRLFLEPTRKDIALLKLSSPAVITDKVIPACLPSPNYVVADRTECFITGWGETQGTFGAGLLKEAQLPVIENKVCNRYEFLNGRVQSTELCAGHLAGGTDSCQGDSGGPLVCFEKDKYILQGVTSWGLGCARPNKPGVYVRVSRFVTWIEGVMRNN
Chain of plasmin (P00747 97-580 partner limits assumed, species assumed): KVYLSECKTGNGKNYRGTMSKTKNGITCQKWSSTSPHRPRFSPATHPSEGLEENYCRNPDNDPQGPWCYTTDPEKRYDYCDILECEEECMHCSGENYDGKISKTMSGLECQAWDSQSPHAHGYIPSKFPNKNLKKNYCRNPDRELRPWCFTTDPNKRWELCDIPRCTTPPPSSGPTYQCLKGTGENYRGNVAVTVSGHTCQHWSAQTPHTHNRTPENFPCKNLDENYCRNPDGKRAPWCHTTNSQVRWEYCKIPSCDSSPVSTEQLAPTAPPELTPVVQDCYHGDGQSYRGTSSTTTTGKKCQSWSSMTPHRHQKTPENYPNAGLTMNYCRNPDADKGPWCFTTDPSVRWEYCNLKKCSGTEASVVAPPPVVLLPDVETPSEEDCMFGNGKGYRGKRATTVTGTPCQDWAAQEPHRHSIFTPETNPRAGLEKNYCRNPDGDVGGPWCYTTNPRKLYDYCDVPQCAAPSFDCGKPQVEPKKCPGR
From the text: (§1) For this reason, two selected representatives of the inhibitors without PEG described in Tables 1 and 2 and one PEG-coupled inhibitor were examined with respect to their inhibiting effect on these enzymes.
(§2) Inhibiting constants of selected inhibitors with respect to the enzymes thrombin, plasmin, urokinase and tPA (values given in nM).

urokinase = urokinase (Homo sapiens, UniProt P00749); assay: Inhibiting constants with respect to urokinase; assay type: biochemical; settings: Example 8a table
From the text: as §1, §2

tPA = tPA (Homo sapiens, UniProt P00750); assay: Inhibiting constants with respect to tPA; assay type: biochemical; settings: Example 8a table
Chain of tPA (P00750 36-562, species assumed): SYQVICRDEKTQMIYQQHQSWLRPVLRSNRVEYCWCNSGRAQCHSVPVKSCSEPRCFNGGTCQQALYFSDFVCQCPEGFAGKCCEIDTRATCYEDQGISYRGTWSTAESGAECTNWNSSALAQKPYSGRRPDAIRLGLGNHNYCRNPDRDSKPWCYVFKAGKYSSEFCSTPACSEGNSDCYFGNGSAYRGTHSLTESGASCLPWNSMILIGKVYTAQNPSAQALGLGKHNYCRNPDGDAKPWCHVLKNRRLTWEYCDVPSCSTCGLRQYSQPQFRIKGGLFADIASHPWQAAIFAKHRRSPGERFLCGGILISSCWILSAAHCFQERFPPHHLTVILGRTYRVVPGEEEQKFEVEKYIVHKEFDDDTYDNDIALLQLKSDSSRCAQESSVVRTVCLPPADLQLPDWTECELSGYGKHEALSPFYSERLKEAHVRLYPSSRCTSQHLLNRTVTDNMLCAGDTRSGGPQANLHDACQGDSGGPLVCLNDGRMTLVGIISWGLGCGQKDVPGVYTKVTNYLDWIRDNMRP
From the text: as §1, §2

thrombin [1] = molecular target: T3, thrombin (Homo sapiens, UniProt P00734); settings: taken from the literature, cited from earlier work
thrombin [2] = molecular target: T3, thrombin; assay: Kinetic constants of chloromethyl ketone inhibitors (method of Stein and Trainor); assay type: biochemical; settings: chloromethyl ketone inhibitor; for pKi: read-out: Kii
[3] = Elimination of the inhibitor conjugates in rats (blood level, urine recovery, clotting test); assay type: in vivo; settings: female, Wistar, rat; for half-life: blood
Description: Preliminary remarks: Female Wistar rats with a body weight between 150 to 250 g were used for the experiments. The animals were kept under conventional conditions and were provided with standard food and water ad libitum. Anaesthetization was carried out with 1.5 g ethylurethane per kg of body weight. Then the right and left jugular veins were prepared and catheters were inserted so that blood could be drawn at different points of time. The urine was collected throughout the entire test period and the inhibitor concentration was determined by means of a clotting test.

[4] = Example 8, read-out: KiThrombin
[5] = Table I, formula (II) compounds
[6] = Table 2, formula (III) compounds

Molecule	Ki Trypsin/Ki Thrombin (human α-thrombin; Table 2, selectivity quotient)	pKi (human α-thrombin; [5])	Ki Trypsin/Ki Thrombin (human α-thrombin; Table I, selectivity quotient)	pKi (human α-thrombin; [6])	pKi (trypsin; [6])	other results
4-Methoxy-benzenesulfonyl-Lys(propionyl-PEG5000-OMe)-Pro-4-amidinobenzylamide	–	–	–	–	–	KiTrypsin/KiThrombin (human α-thrombin): 64; pKi (human α-thrombin; [4]): 9.02; pKi (trypsin; Example 8, read-out: KiTrypsin): 7.21
4-methoxy-benzenesulfonyl-Asn(PEG2000-OMe)-Pro-4-amidinobenzylamide	–	–	–	–	–	KiTrypsin/KiThrombin (human α-thrombin): 174; pKi (human α-thrombin; [4]): 9.28; pKi (trypsin; Example 8, read-out: KiTrypsin): 7.03; pKi (plasmin): 4.47; pKi (urokinase): 3.80; pKi (tPA): 3.22
COc1ccc(S(=O)(=O)NCC(=O)N2CCC[C@H]2C(=O)NCc2ccc(C(=N)N)cc2)cc1 [1c]	23.4	9.01	23.4	–	–	pKi (plasmin): 5.24; pKi (urokinase): 3.65; pKi (tPA): 6.20
NC(N)=NCCC[C@H](NC(=O)[C@@H]1CCCN1C(=O)[C@H](N)Cc1ccccc1)C(=O)CCl [PPACK, D-Phe-Pro-Arg-CH2—Cl]	–	–	–	–	–	Kinact/Ki (thrombin [1]): 4.4e+06 M⁻¹ s⁻¹; kinact (thrombin [1]): 0.11 s⁻¹; pKi (thrombin [1]; read-out: Kii): 7.60
N=C(N)NCCC[C@H](NC(=O)[C@@H]1CCCN1C(=O)[C@@H](CC1CCCCC1)NCC(=O)O)C(=O)CCl.O=C(O)C(F)(F)F.O=C(O)C(F)(F)F [analogous non-PEG-coupled compound, H-d-N(CH2—COOH)Cha-Pro-Arg-CH2—Cl×2 trifluoroacetic acid, reference compound]	–	–	–	–	–	Kinact/Ki (thrombin [2]): 2.1e+07 M⁻¹ s⁻¹; kinact (thrombin [2]): 0.079 s⁻¹; pKi (thrombin [2]): 8.42
COc1cc(C)c(S(=O)(=O)NCC(=O)N2CCC[C@H]2C(=O)NCc2ccc(C(=N)N)cc2)c(C)c1C [compound 2]	–	8.89	12.1	–	–	pKi (trypsin; [5]): 7.80
CC(C)c1cc(C(C)C)c(S(=O)(=O)NCC(=O)N2CCC[C@H]2C(=O)NCc2ccc(C(=N)N)cc2)c(C(C)C)c1 [compound 19]	–	7.87	0.67	–	–	pKi (trypsin; [5]): 8.04
N=C(N)c1ccc(CNC(=O)[C@@H]2CCCN2C(=O)CNS(=O)(=O)CC2CCCCC2)cc1 [compound 20]	–	7.87	0.22	–	–	pKi (trypsin; [5]): 8.51
Cc1c(C)c(S(=O)(=O)NCC(=O)N2CCC[C@H]2C(=O)NCc2ccc(C(=N)N)cc2)c(C)c2c1OC(C)(C)C2 [compound 28]	–	7.52	1.2	–	–	pKi (trypsin; [5]): 7.43
N=C(N)c1ccc(CNC(=O)[C@@H]2CCCN2C(=O)CNS(=O)(=O)CCc2ccccc2)cc1 [compound 31]	–	7.38	0.39	–	–	pKi (trypsin; [5]): 7.78
N=C(N)c1ccc(CNC(=O)[C@@H]2CCCN2C(=O)[C@H](CC(=O)OCc2ccccc2)NS(=O)(=O)c2ccc3ccccc3c2)cc1 [compound 36]	13.6	–	–	8.89	7.75	–
N=C(N)c1ccc(CNC(=O)[C@@H]2CCCN2C(=O)[C@H](CN)NS(=O)(=O)c2ccc3ccccc3c2)cc1 [compound 37]	4.3	–	–	8.62	7.99	–
N=C(N)c1ccc(CNC(=O)[C@@H]2CCCN2C(=O)[C@@H](CC(N)=O)NS(=O)(=O)c2ccc3ccccc3c2)cc1 [compound 43]	0.42	–	–	7.28	7.65	–
COc1ccc(S(=O)(=O)N[C@@H](CC(=O)NCc2ccc(C#N)cc2)C(=O)N2CCC[C@H]2C(=O)NCc2ccc(C(=N)N)cc2)cc1 [compound 44]	911	–	–	10.35	7.39	–
COc1ccc(S(=O)(=O)N[C@@H](CC(=O)NCc2ccc(CN)cc2)C(=O)N2CCC[C@H]2C(=O)NCc2ccc(C(=N)N)cc2)cc1 [compound 45]	639	–	–	10.21	7.41	–
COc1ccc(S(=O)(=O)N[C@@H](CC(=O)NCc2ccccc2)C(=O)N2CCC[C@H]2C(=O)NCc2ccc(C(=N)N)cc2)cc1 [compound 47]	600	–	–	10.19	7.41	–
COc1ccc(S(=O)(=O)N[C@@H](CC(=O)NCc2cccc(CN)c2)C(=O)N2CCC[C@H]2C(=O)NCc2ccc(C(=N)N)cc2)cc1 [compound 48]	512	–	–	10.10	7.39	–
COc1ccc(S(=O)(=O)N[C@@H](CC(=O)OCc2ccccc2)C(=O)N2CCC[C@H]2C(=O)NCc2ccc(C(=N)N)cc2)cc1 [compound 49]	181	–	–	9.68	7.42	–
COc1ccc(S(=O)(=O)NC(CC(N)=O)C(=O)N2CCCC2C(=O)NCc2ccc(C(=N)N)cc2)cc1 (stereo not shown) [compound 50]	147	–	–	9.44	–	pKi (plasmin): 4.76; pKi (urokinase): 4.28; pKi (tPA): 4.33
COc1ccc(S(=O)(=O)N[C@@H](CO)C(=O)N2CCC[C@H]2C(=O)NCc2ccc(C(=N)N)cc2)cc1 [compound 51]	67	–	–	9.59	7.77	–
COC(=O)C[C@H](NS(=O)(=O)c1ccc(OC)cc1)C(=O)N1CCC[C@H]1C(=O)NCc1ccc(C(=N)N)cc1 [compound 52]	31	–	–	9.17	7.67	–
COc1ccc(S(=O)(=O)N[C@@H](CC(=O)O)C(=O)N2CCC[C@H]2C(=O)NCc2ccc(C(=N)N)cc2)cc1 [compound 55]	48	–	–	8.80	–	–
N=C(N)N1CCC(CNC(=O)[C@@H]2CCCN2C(=O)[C@@H](CC2CCCCC2)NCC(=O)O)CC1 [formula (IV)]	–	–	–	–	–	half-life ([3]; intravenous administration of 10 mg/kg): ~0.275 h; dose excreted ([3]; urine, sc, rats, subcutaneous administration, read-out: cumulative percentage recovery in the urine): ~58%
N=C(N)N1CCC(CNC(=O)[C@@H]2CCCN2C(=O)[C@@H](CC2CCCCC2)NCC(=O)NCC2COCCOCCOCCOCCO2)CC1 (stereo partly shown) [inhibitor structure (VI)]	–	–	–	–	–	half-life ([3]; sc, rats, subcutaneous administration of 5 mg/kg): ~5.83 h
D-N(CH2—CO—NH-PEG5000-OMe)Cha-Pro-4-(amidomethyl)-N(amidino)piperidine×2 HCl	–	8.46	1.8	–	–	KiTrypsin/KiThrombin (human α-thrombin): 100; pKi (human α-thrombin; [4]): 8.62; pKi (trypsin; Example 8, read-out: KiTrypsin): 6.62; pKi (trypsin; [5]): 8.21
H-D-N(CH2—CO—NH-PEG5000-OMe)Cha-Pro-4-(amidino)benzylamide	–	8.72	1.6	–	–	KiTrypsin/KiThrombin (human α-thrombin): 3.5; pKi (human α-thrombin; [4]): 9.01; pKi (trypsin; Example 8, read-out: KiTrypsin): 8.47; pKi (trypsin; [5]): 8.52
H-d-N(CH2—CONH-PEG2000-OMe)Cha-Pro-Arg-CH2—Cl×2 trifluoroacetic acid	–	8.42	0.97	–	–	pKi (trypsin; [5]): 8.43; Kinact/Ki (thrombin [2]): 7.5e+06 M⁻¹ s⁻¹; kinact (thrombin [2]): 0.08 s⁻¹; pKi (thrombin [2]): 7.97
